According to patent publication US20230192699A1, “COMPOUNDS AS CASEIN KINASE INHIBITORS” (GRITSCIENCE BIOPHARMACEUTICALS CO., LTD., priority 2020, published 2023):

Experiments:
[1] = system: MDA-MB-231 cells; test: Cell proliferation assay (crystal violet); assay type: cell-based; conditions: various concentrations, 72 hours
Experimental: MDA-MB-231 cells treated with a compound of the present application (e.g., compound 1-1, 2-5, 1-14 and 3-8, respectively) were seeded at a density of 5×10^4cells/well in 12-well plate and incubated at 37° C. with 5% CO2. After 72 hours of culturing, the cells were washed with PBS, fixed in 4% formaldehyde for 15 minutes and stained with 0.1% crystal violet for 20 minutes. Cells were washed with water and the staining was extracted with 10% acetic acid for 20 minutes and absorbance was measured at 590 nm. The experiments were performed in triplicates.

[2] = system: MDA-MB-231 cells (breast cancer cells); test: Transwell cell migration assay; assay type: cell-based; conditions: MDA-MB-231, 24 h; for relative migration (%) of cells: FIG. 61; for migrated cells: FIGS. 62-67
Experimental: MDA-MB-231 cells (breast cancer cells) were starved in 0.5% serum-DMEM for 8 hours. For the migration assay, a total of 5×10^4cells were suspended in 500 μL of serum-free DMEM medium and seeded into the upper chamber of a […] pore size insert. Then, 750 μL of DMEM (containing 10% FBS) with or without the compound of the present application was added to the lower compartment. After incubation at 37° C. for 24 h, migrated cells were washed with PBS, fixed in 4% PFA and stained for 30 min in crystal violet solution (0.1% crystal violet). […] Each insert was photographed in 3 random fields at a magnification of 40×.

[3] = target: wild type CK1δ (Homo sapiens, UniProt P48730); test: CK1δ kinase assay (Kinase-Glo); assay type: biochemical; conditions: 10 μM ATP, 2 nM wild type CK1δ, 85 min at 25° C.; read-out: CK1δ inhibition (IC50)
Experimental: The CK1δ kinase assay was performed with a buffer (40 μL, pH 7.5) containing 50 mM Tris, 10 mM MgCl2, 1 mM dithiothreitol, 100 μg/mL BSA with 10 μM ATP, 2 nM wild type CK1δ, and 42 μM peptide substrate PLSRTLpSVASLPGL (Flotow et al., 1990) in the presence of 1 μL of a CK1δ inhibitor (e.g., a compound of the present application) or 4% DMSO (e.g., as control). The reaction mixture was incubated for 85 min at 25° C.; detection was carried out as described for the Kinase-Glo Assay (Promega). Luminescent output was measured on the Perkin Elmer Envision plate reader (PerkinElmer, Waltham, Mass.).

[4] = Assay of intrinsic clearance in liver microsomes (mouse); assay type: in vitro ADME; conditions: Mouse liver microsomes 0.5 mg/mL, 2 μM compound, 37° C.; for microsomal CLint at 2 μM: read-out: in vitro CLint (μL/min/mg protein); for half-life at 2 μM: read-out: in vitro t1/2
Experimental: (§1) 1. The master solution was prepared according to Table 11.
(§2) 2. Three separated experiments were performed as follows. a) With NADPH: 10 μL of 20 mg/mL liver microsomes and 40 μL of 10 mM NADPH were added to the incubations. The final concentrations of microsomes and NADPH were 0.5 mg/mL and 1 mM, respectively. b) Without NADPH: 10 μL of 20 mg/mL liver microsomes and 40 μL of ultra-pure H2O were added to the incubations. The final concentration of microsomes was 0.5 mg/mL. c) Heat-inactivated microsomes without NADPH: 10 μL of 20 mg/mL heat-inactivated liver microsomes and 40 μL of ultra-pure H2O were added to the incubations. The final concentration of microsomes was 0.5 mg/mL.
(§3) 3. The reaction was started with the addition of 4 μL of 200 μM test compound solution or control compound solution at the final concentration of 2 μM and carried out at 37° C.
(§4) 4. Aliquots of 50 μL were taken from the reaction solution at 0, 15, 30, 45 and 60 min. The reaction was stopped by the addition of 4 volumes of cold acetonitrile with IS (100 nM alprazolam, 200 nM labetalol, 200 nM caffeine and 2 μM ketoprofen). Samples were centrifuged at 3, 220 g for 40 minutes.
(§5) Peak areas were determined from extracted ion chromatograms. The slope value, k, was determined by linear regression of the natural logarithm of the remaining percentage of the parent drug vs. incubation time curve.
(§6) The in vitro half-life (in vitro t1/2) was determined from the slope value:
(§7) Conversion of the in vitro t1/2 (min) into the in vitro intrinsic clearance (in vitro CLint, in μL/min/mg protein) was done using the following equation (mean of duplicate determinations):
(§8) in vitro CLint=(0.693 * volume of incubation(μl))/(in vitro t1/2 * amount of proteins(mg))

[5] = Assay of intrinsic clearance in liver microsomes (human); assay type: in vitro ADME; conditions: Human liver microsomes 0.5 mg/mL, 2 μM compound, 37° C.; for microsomal CLint at 2 μM: read-out: in vitro CLint (μL/min/mg protein); for half-life at 2 μM: read-out: in vitro t1/2
Experimental: as §1, §2, §3, §4, §5, §6, §7, §8

[6] = in vitro; conditions: human, Caco-2, pH 7.4
Experimental: 1) 50 μL and 25 mL of cell culture medium were added to each well of the Transwell insert and reservoir, respectively. And then the HTS transwell plates were incubated at 37° C., 5% CO2 for 1 hour before cell seeding.
2) Caco-2 cells were diluted to 6. 86×10^5 cells/mL with culture medium and 50 μL of cell suspension were dispensed into the filter well of the 96-well HTS Transwell plate. Cells were cultivated for 14-18 days in a cell culture incubator at 37° C., 5% CO2, 95% relative humidity. Cell culture medium was replaced every other day, beginning no later than 24 hours after initial plating.
10 mM stock solutions of test compounds were prepared in DMSO. The stock solutions of positive controls were prepared in DMSO at the concentration of 10 mM. Digoxin and propranolol were used as control compounds in this assay.
1) Medium was removed from the reservoir and each Transwell insert and replaced with prewarmed fresh culture medium.
2) Transepithelial electrical resistance (TEER) across the monolayer was measured using Millicell Epithelial Volt-Ohm measuring system (Millipore, USA).
The TEER value was calculated according to the following equation: TEER measurement (ohms) * Area of membrane (cm^2)=TEER value (ohm·cm^2) TEER value should be greater than 230 ohm·cm^2, which indicates the well-qualified Caco-2 monolayer.
1) The Caco-2 plate was removed from the incubator and washed twice with pre-warmed HMS (10 mM HEPES, pH 7.4), and then incubated at 37° C. for 30 minutes.
2) The stock solutions of control compounds and test compounds were diluted in DMSO to get 1 mM solutions and then diluted with HMS (10 mM HEPES, pH 7.4) get 5 μM working solutions. The final concentration of DMSO in the incubation system was 0.5%.
3) To determine the rate of drug transport in the apical to basolateral direction. 125 μL of 5 μM working solution of control compound and test compounds were added to the Transwell insert (apical compartment), and transfer 50 μL sample (D0 sample) immediately from the apical compartment to a new 96-well plate. Fill the wells in the receiver plate (basolateral compartment) with 235 μL of MSS (10 mM HEPES, pH 7.4).
4) To determine the rate of drug transport in the basolateral to apical direction. 285 μL of 5 μM working solution of control compound and test compounds were to the receiver plate wells (basolateral compartment), and transfer 50 μL sample (D0 sample) immediately from the basolateral compartment to a new 96-well plate. Fill the wells in the Transwell insert (apical compartment) with 75 μL of MSS (10 mM HEPES, pH 7.4). The assay was performed in duplicate.
5) The plates were incubated at 37° C. for 2 hours.
6) At the end of the incubation, 50 μL samples from donor sides (apical compartment for Ap→Bl flux, and basolateral compartment for Bl→Ap) and receiver sides (basolateral compartment for Ap→Bl flux, and apical compartment for Bl→Ap) were transferred to wells of a new 96-well plate, followed by the addition of 4 volume of cold methanol containing appropriate internal standards (IS). Samples were Vortexed for 5 minutes and then centrifuged at 3,220 g for 40 minutes. An aliquot of 100 μL of the supernatant was mixed with an appropriate volume of ultra-pure water before LC-MS/MS analysis.
7) To determine the Lucifer Yellow leakage after 2-hour transport period, stock solution of Lucifer yellow was prepared in water and diluted with HMS (10 mM HEPES, pH 7.4) to reach the final concentration of 100 μM. 100 μL of the Lucifer yellow solution was added to each Transwell insert (apical compartment), followed by filling the wells in the receiver plate (basolateral compartment) with 300 μL of HBSS (10 mM HEPES, pH 7.4). The plates were Incubated at 37° C. for 30 mins. 80 μL samples were removed directly from the apical and basolateral wells (using the basolateral access holes) and transferred to wells of new 96 wells plates.

Sequence of wild type CK1δ (P48730 whole entry): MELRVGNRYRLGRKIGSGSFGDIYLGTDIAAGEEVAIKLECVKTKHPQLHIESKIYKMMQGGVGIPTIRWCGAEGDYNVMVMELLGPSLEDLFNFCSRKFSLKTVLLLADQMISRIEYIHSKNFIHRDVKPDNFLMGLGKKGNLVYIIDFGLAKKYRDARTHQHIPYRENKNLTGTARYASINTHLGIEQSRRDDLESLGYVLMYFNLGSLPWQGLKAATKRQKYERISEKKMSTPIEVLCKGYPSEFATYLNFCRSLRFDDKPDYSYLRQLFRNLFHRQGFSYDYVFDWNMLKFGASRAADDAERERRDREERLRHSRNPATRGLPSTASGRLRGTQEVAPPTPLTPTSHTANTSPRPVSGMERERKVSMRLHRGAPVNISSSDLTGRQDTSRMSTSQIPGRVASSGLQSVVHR

Row | SMILES | IC50 [3] [nM] | microsomal CLint at 2 μM [4] [µL/min/mg] | half-life at 2 μM [4] [min] | microsomal CLint at 2 μM [5] [µL/min/mg] | half-life at 2 μM [5] [min] | efflux ratio at 2 h, 5 μM [6] | also measured
1 | Nc1nccc(-c2c(-c3ccc(F)cc3)nc3cnccn23)n1 [Compound 1-1, 4-(2-(4-fluorophenyl)imidazo[1,2-a]pyrazin-3-yl)pyrimidin-2-amine] |  |  |  |  |  |  | relative proliferation (%) of cells [1]: affected in a concentration dependent manner; relative migration (%) of cells [2]: reduced; migrated cells [2]: suppressed the migration
2 | C[C@@H]1Cn2nc(-c3ccc(F)cc3)c(-c3ccncc3)c2CO1 [Compound 1-46, (R)-2-(4-fluorophenyl)-6-methyl-3-(pyridin-4-yl)-6,7-dihydro-4H-pyrazolo[5,1-c][1,4]oxazine] | 273 | 44.9 | 30.9 | 60.1 | 23.1 |  | 
3 | Nc1cc(-c2c(-c3ccc(F)cc3)nn3c2COCC3)ccn1 [Compound 1-49, 4-(2-(4-fluorophenyl)-6,7-dihydro-4H-pyrazolo[5,1-c][1,4]oxazin-3-yl)pyridin-2-amine] | 320 | 104 | 13.3 | 49.5 | 28 |  | 
4 | CC(=O)N1CCn2nc(-c3ccc(F)cc3)c(-c3ccnc(N)c3)c2C1 [Compound 1-50, 1-(3-(2-aminopyridin-4-yl)-2-(4-fluorophenyl)-6,7-dihydropyrazolo[1,5-a]pyrazin-5(4H)-yl)ethan-1-one] | 355 |  |  |  |  | 3.6 | Papp A→B at 2 h, 5 μM [6]: 8.5 ×10⁻⁶ cm/s; Papp B→A at 2 h, 5 μM [6]: 30.8 ×10⁻⁶ cm/s
5 | Nc1cc(-c2c(-c3ccc(F)cc3)nn3c2CCC3)ccn1 [Compound 1-57, 4-(2-(4-fluorophenyl)-5,6-dihydro-4H-pyrrolo[1,2-b]pyrazol-3-yl)pyridin-2-amine] | 131 | 285 | 4.86 | 104 | 13.4 | 0.9 | Papp A→B at 2 h, 5 μM [6]: 19.2 ×10⁻⁶ cm/s; Papp B→A at 2 h, 5 μM [6]: 17.3 ×10⁻⁶ cm/s
6 | CN1CCn2nc(-c3ccc(F)cc3)c(-c3ccnc(N)c3)c2C1 [Compound 1-59, 4-(2-(4-fluorophenyl)-5-methyl-4,5,6,7-tetrahydropyrazolo[1,5-a]pyrazin-3-yl)pyridin-2-amine] | 39.7 | 22.2 | 62.3 | 9.7 | 143 | 1.05 | Papp A→B at 2 h, 5 μM [6]: 22.8 ×10⁻⁶ cm/s; Papp B→A at 2 h, 5 μM [6]: 23.9 ×10⁻⁶ cm/s
7 | Cc1cn(-c2ccncc2)c(-c2ccc(F)cc2)c1C#N [Compound 2-2, 2-(4-fluorophenyl)-4-methyl-1-(pyridin-4-yl)-1H-pyrrole-3-carbonitrile] | 212 |  |  |  |  |  | relative migration (%) of cells [2]: reduced; migrated cells [2]: suppressed the migration
8 | Fc1ccc(-c2nn[nH]c2-c2ccncc2)cc1 [Compound 3-7, 4-(4-(4-fluorophenyl)-1H-1,2,3-triazol-5-yl)pyridine] | 7140 |  |  |  |  |  | relative migration (%) of cells [2]: reduced; migrated cells [2]: suppressed the migration
9 | COc1ccc(Cn2nnc(-c3ccc(F)cc3)c2-c2ccncc2)cc1 [Compound 3-8, 4-(4-(4-fluorophenyl)-1-(4-methoxybenzyl)-1H-1,2,3-triazol-5-yl)pyridine] | 97400 |  |  |  |  |  | relative proliferation (%) of cells [1]: affected in a concentration dependent manner
10 | Cn1cc(-c2ccnc3[nH]ncc23)c(-c2ccc(F)cc2)c1C#N [Compound 5-2, 3-(4-fluorophenyl)-1-methyl-4-(1H-pyrazolo[3,4-b]pyridin-4-yl)-1H-pyrrole-2-carbonitrile] | 168 | 25.2 | 55 | 7.93 | 175 |  | 
11 | Cc1cc(-c2ccnc3c2C(=O)OC3)n(-c2ccc(F)cc2)n1 [Compound 6-1, 4-(1-(4-fluorophenyl)-3-methyl-1H-pyrazol-5-yl)furo[3,4-b]pyridin-5(7H)-one] | 93 |  |  |  |  |  | 
12 | C[C@H]1O[C@@H](O[C@H]2[C@@H](O)C[C@H](O[C@H]3[C@@H](O)C[C@H](O[C@H]4CC[C@@]5(C)[C@H](CC[C@@H]6[C@@H]5C[C@@H](O)[C@]5(C)[C@@H](C7=CC(=O)OC7)CC[C@]65O)C4)O[C@@H]3C)O[C@@H]2C)C[C@H](O)[C@@H]1O [Digoxin, reference compound] |  |  |  |  |  | 56.5 | 
13 | CC(C)NCC(O)COc1cccc2ccccc12 (stereo not shown) [Propranolol, reference compound] |  |  |  |  |  | 0.51 | 
